Experimental findings from ChEMBL document CHEMBL1201862, “PubChem BioAssay data set” (2004) are described below.

Some test systems named below: SK-OV-3; SN12C; BT-549; Hs-578T; MCF7; ACHN; HOP-62; HCT-116; SW-620; T47D; CCRF-CEM; Malme-3M; NCI-H522; SR; NCI/ADR-RES; A549; PC-3; UACC-62; SK-MEL-28; SNB-75.
Common to all, as to assay: NCI-60 cell line screen, 48 h

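The compound was tested at five concentrations on cells cultured in 96-well plates, with a 48-hour exposure period. The concentration for 50% growth inhibition is given as GI50.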 The source made the active and inactive calls. Cut-off read from the data, not from the text of the source: active = GI50 up to about 1.1 µM and inactive = higher. Bounds are passed on as bounds.

Turning to `O=C(O)c1cc(-c2ccc(-c3ccccc3)cc2)nc2cc3ccccc3cc12`, the GI50 in the experiment on SK-OV-3 was > 100 µM (inactive); with SN12C it was 61.9 µM (inactive); in the experiment with BT-549, 35.9 µM (inactive); in the experiment on Hs-578T it was 32.3 µM (inactive); with MCF7, > 100 µM (inactive); in the experiment with ACHN it was 46.6 µM (inactive). The GI50 with HOP-62 was 30.3 µM (inactive); in the experiment with HCT-116 it was 31.3 µM (inactive); in the experiment on SW-620 it was 40.4 µM (inactive); in the experiment on T47D, 49.5 µM (inactive); in the experiment on CCRF-CEM, 5.21 µM (inactive); in the experiment on Malme-3M, 84.5 µM (inactive). For the same compound, the GI50 is 27.7 µM (inactive) in the experiment on NCI-H522; 5.43 µM (inactive) in the experiment with SR; 75.7 µM (inactive) in the experiment with NCI/ADR-RES; 19.8 µM (inactive) in the experiment with A549; 17.5 µM (inactive) in the experiment on PC-3; 25.5 µM (inactive) in the experiment on UACC-62. Further, the GI50 with SK-MEL-28 is 87.5 µM (inactive); in the experiment with SNB-75, 29.2 µM (inactive).
Turning to `O=C1/C(=C/c2ccc(O)cc2)CC/C1=C\c1ccc(O)cc1`, the GI50 with SK-OV-3 was > 100 µM (inactive); in the experiment with SN12C, > 64.6 µM (inactive); with BT-549, > 100 µM (inactive); in the experiment with Hs-578T, > 100 µM (inactive); in the experiment on MCF7 it was > 100 µM (inactive); in the experiment on ACHN, 6.31 µM (inactive). For the same compound, the GI50 with HOP-62 was > 61.8 µM (inactive); in the experiment on HCT-116, > 100 µM (inactive); in the experiment with SW-620, > 100 µM (inactive); in the experiment on T47D, > 95.1 µM (inactive); in the experiment on CCRF-CEM, 1.52 µM (inactive); in the experiment on Malme-3M, > 72.6 µM (inactive). Besides, the GI50 in the experiment with NCI-H522 is 49.4 µM (inactive); in the experiment with SR, 3.37 µM (inactive); in the experiment on NCI/ADR-RES, 28.3 µM (inactive); in the experiment with A549 it was > 95.1 µM (inactive); with PC-3 it was 59.6 µM (inactive); in the experiment with UACC-62, 13.3 µM (inactive). Further, the GI50 in the experiment with SK-MEL-28 and in the experiment with SNB-75 was > 100 µM (inactive) each time.
For `CCCSc1ccc2[nH]c(/N=C/c3ccco3)cc2c1`, the GI50 in the experiment with SK-OV-3 was 30.5 µM (inactive); in the experiment on SN12C, 29.9 µM (inactive); in the experiment on BT-549, 31 µM (inactive); in the experiment on Hs-578T, 29.1 µM (inactive); with MCF7 it was 6.34 µM (inactive); with ACHN it was 49.5 µM (inactive). Also, the GI50 in the experiment with HOP-62 is 6.64 µM (inactive); with HCT-116, 35.4 µM (inactive); in the experiment on SW-620, 40.2 µM (inactive); with T47D, 38.1 µM (inactive); in the experiment on CCRF-CEM it was 27.6 µM (inactive); in the experiment on Malme-3M, 67.9 µM (inactive). The GI50 was 22.2 µM (inactive) in the experiment with NCI-H522; 1.68 µM (inactive) in the experiment on SR; 27.5 µM (inactive) with NCI/ADR-RES; 77.6 µM (inactive) in the experiment on A549; 43.7 µM (inactive) with PC-3; 52.8 µM (inactive) with UACC-62. The values for the GI50 with SK-MEL-28 and with SNB-75 were 41.8 µM (inactive) and > 100 µM (inactive), respectively.
Consider `COc1cc(Oc2nc3c(N)cc(C(F)(F)F)cc3nc2-c2ccccc2)cc(OC)c1OC`, for which the GI50 in the experiment on SK-OV-3 was 4.53 µM (inactive); in the experiment on SN12C, 8.07 µM (inactive); in the experiment with BT-549, 4.03 µM (inactive); in the experiment with Hs-578T, 3.69 µM (inactive); in the experiment with MCF7, 3.17 µM (inactive); in the experiment on ACHN it was 4.55 µM (inactive). The GI50 was 3.29 µM (inactive) with HOP-62; 2.34 µM (inactive) in the experiment with HCT-116; 3.07 µM (inactive) with SW-620; 5.81 µM (inactive) in the experiment with T47D; 4.9 µM (inactive) in the experiment with CCRF-CEM; 0.869 µM (active) in the experiment with Malme-3M. For the same compound, the GI50 was 2.08 µM (inactive) in the experiment on NCI-H522; 0.624 µM (active) in the experiment with SR; 2.09 µM (inactive) with NCI/ADR-RES; 5 µM (inactive) with A549; 1.92 µM (inactive) in the experiment with PC-3; 1.66 µM (inactive) with UACC-62. Also, the GI50 was 14.8 µM (inactive) in the experiment on SK-MEL-28 and 1.23 µM (inactive) in the experiment on SNB-75.
For the compound `CC1=NN(c2cccc(Cl)c2)C2(C1)SCC(=O)N2c1nc2ccccc2s1` (stereo not given), the GI50 in the experiment on SK-OV-3 is 21.6 µM (inactive); in the experiment with SN12C, 22.1 µM (inactive); in the experiment on BT-549, 29.3 µM (inactive); in the experiment on Hs-578T, 41.1 µM (inactive); in the experiment on MCF7 it was 25.6 µM (inactive); in the experiment on ACHN, 26.8 µM (inactive). Also, the GI50 in the experiment on HOP-62 is 19.4 µM (inactive); in the experiment on HCT-116 it was 17.9 µM (inactive); with SW-620, 32.6 µM (inactive); in the experiment on T47D it was 19.8 µM (inactive); with CCRF-CEM it was 21.8 µM (inactive); in the experiment on Malme-3M, 34.3 µM (inactive). Besides, the GI50 in the experiment on NCI-H522 was 25.9 µM (inactive); with SR, 17.9 µM (inactive); in the experiment on NCI/ADR-RES it was 32.1 µM (inactive); in the experiment on A549 it was 31.2 µM (inactive); with PC-3, 23.3 µM (inactive); in the experiment on UACC-62, 29.5 µM (inactive). The GI50 with SK-MEL-28 is 32.8 µM (inactive); in the experiment with SNB-75 it was 13.2 µM (inactive).
